From patent publication US9440982B2 (Eolas Therapeutics, Inc., priority 2012, dated 2016)

Experiments:
CYP3A4 = biological target: T1, CYP3A4 (Homo sapiens, UniProt P08684); assay: Cytochrome P450 inhibition assay (midazolam hydroxylation); assay type: in vitro ADME; conditions: human, human liver microsomes, probe midazolam (hydroxylation to 1′-hydroxymidazolam), 10 μM test compound, midazolam at approximately its Km
T1 construct: pre-incubated with human liver microsomes and NADPH; from tissue; host or cells: human liver microsomes
Procedure, shortened: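 Human liver microsomes; CYP3A4 activity as midazolam 1′-hydroxylation with substrate near Km, with or without 10 μM test compound, read as percent inhibition. For time-dependent inhibition, parallel samples were preincubated 30 min with NADPH before substrate, and percent inhibition compared with non-preincubated samples.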

OX1 = biological target: T2, OX1 (Homo sapiens, UniProt O43613); assay: Orexin receptor cell-based functional assay, [Ca2+]i by FLIPR, CHO-OX1 cells; conditions: CHO-OX1 cells, [Ca2+]i by FLIPR, antagonist dose-range 0.1 nM-10 μM, EC90 of OXA; read-out: OX1
T2 construct: expressed in transfected cells; host or cells: CHO (CHO-OX1, kept under selection antibiotic)
T2 sequence (O43613 1-425): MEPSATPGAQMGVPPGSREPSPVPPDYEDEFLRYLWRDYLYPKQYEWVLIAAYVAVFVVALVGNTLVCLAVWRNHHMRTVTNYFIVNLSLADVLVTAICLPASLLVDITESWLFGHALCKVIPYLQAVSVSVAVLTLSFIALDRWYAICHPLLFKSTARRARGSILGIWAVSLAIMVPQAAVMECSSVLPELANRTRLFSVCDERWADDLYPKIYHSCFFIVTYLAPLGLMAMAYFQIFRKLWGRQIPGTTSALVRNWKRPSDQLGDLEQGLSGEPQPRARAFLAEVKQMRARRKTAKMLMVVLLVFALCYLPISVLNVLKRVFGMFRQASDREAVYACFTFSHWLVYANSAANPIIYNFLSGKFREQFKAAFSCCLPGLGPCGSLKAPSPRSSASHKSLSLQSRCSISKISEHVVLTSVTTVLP
Procedure, shortened: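 CHO cells expressing human OX1 or OX2 loaded with calcium dye plus 2.5 mM probenecid at 37° C (calcium4, 30 min, or calcium6, 2 h), then exposed to compounds (0.1 nM-10 μM) for 30 min. Intracellular Ca2+ measured on FLIPR; antagonist format.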

T1 sequence (P08684 whole entry): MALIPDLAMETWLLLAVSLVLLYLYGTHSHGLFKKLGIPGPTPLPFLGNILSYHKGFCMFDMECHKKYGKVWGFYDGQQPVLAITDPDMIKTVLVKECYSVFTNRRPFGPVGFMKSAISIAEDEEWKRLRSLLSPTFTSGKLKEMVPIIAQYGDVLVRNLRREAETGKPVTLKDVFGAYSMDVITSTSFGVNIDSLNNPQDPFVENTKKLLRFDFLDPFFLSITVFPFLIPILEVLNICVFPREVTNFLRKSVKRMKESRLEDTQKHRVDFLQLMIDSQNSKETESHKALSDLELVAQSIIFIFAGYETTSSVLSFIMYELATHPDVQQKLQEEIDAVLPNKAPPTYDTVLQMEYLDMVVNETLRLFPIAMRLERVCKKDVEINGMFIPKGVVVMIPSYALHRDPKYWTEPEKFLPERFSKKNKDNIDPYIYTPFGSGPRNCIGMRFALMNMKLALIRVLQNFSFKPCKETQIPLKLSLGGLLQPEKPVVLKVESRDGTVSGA

Row | inhibition at 10 µM (CYP3A4) [%] | IC50 (OX1) [nM] | SMILES
1 | 51 | 1 | Cc1ccc(-n2nccn2)c(C(=O)N2CCC[C@@H](C)[C@H]2CNc2ccc(C(F)(F)F)cn2)n1 [Example A174, ((2S,3R)-3-Methyl-2-(((5-(trifluoromethyl)pyridin-2-yl)amino)methyl)piperidin-1-yl)(6-methyl-3-(2H-1,2,3-triazol-2-yl)pyridin-2-yl)methanone]
2 | 33 | 1 | Cc1ccc(-n2nccn2)c(C(=O)N2CCC[C@@H](C)[C@H]2CNc2ncc(C(F)(F)F)cn2)n1 [Example A175, ((2S,3R)-3-Methyl-2-(((5-(trifluoromethyl)pyrimidin-2-yl)amino)methyl)piperidin-1-yl)(6-methyl-3-(2H-1,2,3-triazol-2-yl)pyridin-2-yl)methanone]
3 | 37 | 6 | Cc1ccc(-n2nccn2)c(C(=O)N2CCC[C@@H](C)[C@H]2CNc2ccc(C(F)(F)F)nn2)n1 [Example A176, ((2S,3R)-3-Methyl-2-(((6-(trifluoromethyl)pyridazin-3-yl)amino)methyl)piperidin-1-yl)(6-methyl-3-(2H-1,2,3-triazol-2-yl)pyridin-2-yl)methanone]
4 | 39 | 5 | Cc1ccc(-n2nccn2)c(C(=O)N2CCC[C@@H](C)[C@H]2CNc2ncc(Cl)cn2)n1 [Example A177, ((2S,3R)-2-(((5-Chloropyrimidin-2-yl)amino)methyl)-3-methylpiperidin-1-yl)(6-methyl-3-(2H-1,2,3-triazol-2-yl)pyridin-2-yl)methanone]
5 | 67 | 490 | Cc1ccc(-c2ccccn2)c(C(=O)N2CCC[C@@H](C)[C@H]2CNc2ncc(F)cn2)c1 [Example A179, ((2S,3R)-2-(((5-Fluoropyrimidin-2-yl)amino)methyl)-3-methylpiperidin-1-yl)(5-methyl-2-(pyridin-2-yl)phenyl)methanone]
6 | 76 | 4 | Cc1ccc(-c2ncccn2)c(C(=O)N2CCC[C@@H](C)[C@H]2CNc2ncc(Cl)cc2F)c1 [Example A181, ((2S,3R)-2-(((5-Chloro-3-fluoropyridin-2-yl)amino)methyl)-3-methylpiperidin-1-yl)(5-methyl-2-(pyrimidin-2-yl)phenyl)methanone]
7 | 65 | 140 | Cc1ccc(-c2ncccn2)c(C(=O)N2CCC[C@@H](C)[C@H]2CNc2ncc(F)cc2F)c1 [Example A182, ((2S,3R)-2-(((3,5-Difluoropyridin-2-yl)amino)methyl)-3-methylpiperidin-1-yl)(5-methyl-2-(pyrimidin-2-yl)phenyl)methanone]
8 | 34 | 5 | Cc1ccc(-c2ncccn2)c(C(=O)N2CCC[C@@H](C)[C@H]2CNc2ncc(C(F)(F)F)cn2)n1 [Example A184, ((2S,3R)-3-Methyl-2-(((5-(trifluoromethyl)pyrimidin-2-yl)amino)methyl)piperidin-1-yl)(6-methyl-3-(pyrimidin-2-yl)pyridin-2-yl)methanone]
9 | 33 | 46 | Cc1ccc(-c2ncccn2)c(C(=O)N2CCC[C@@H](C)[C@H]2CNc2ccc(C(F)(F)F)nn2)n1 [Example A185, ((2S,3R)-3-Methyl-2-(((6-(trifluoromethyl)pyridazin-3-yl)amino)methyl)piperidin-1-yl)(6-methyl-3-(pyrimidin-2-yl)pyridin-2-yl)methanone]
10 | 53 | 5 | Cc1ccc(-c2ncccn2)c(C(=O)N2CCC[C@@H](C)[C@H]2CNc2ccc(Cl)cn2)n1 [Example A186, ((2S,3R)-2-(((5-chloropyridin-2-yl)amino)methyl)-3-methylpiperidin-1-yl)(6-methyl-3-(pyrimidin-2-yl)pyridin-2-yl)methanone]
11 | 40 | 200 | Cc1ccc(-c2ncccn2)c(C(=O)N2CCC[C@@H](C)[C@H]2CNc2nnc(C(F)(F)F)s2)n1 [Example A187, ((2S,3R)-3-Methyl-2-(((5-(trifluoromethyl)-1,3,4-thiadiazol-2-yl)amino)methyl)piperidin-1-yl)(6-methyl-3-(pyrimidin-2-yl)pyridin-2-yl)methanone]
12 | 59 | 1 | Cc1ccc(-n2nccn2)c(C(=O)N2CCC[C@@H](C)[C@H]2CNc2ncc(C(F)(F)F)cc2F)n1 [Example A188, ((2S,3R)-2-(((3-Fluoro-5-(trifluoromethyl)pyridin-2-yl)amino)methyl)-3-methylpiperidin-1-yl)(6-methyl-3-(2H-1,2,3-triazol-2-yl)pyridin-2-yl)methanone]
13 | 37 | 120 | Cc1ccc(-n2nccn2)c(C(=O)N2CCC[C@@H](C)[C@H]2CNc2ccc(C#N)cn2)n1 [Example A189, 6-((((2S,3R)-3-Methyl-1-(6-methyl-3-(2H-1,2,3-triazol-2-yl)picolinoyl)piperidin-2-yl)methyl)amino)nicotinonitrile]
14 | 24 | 2000 | Cc1ccc(-n2nccn2)c(C(=O)N2CCC[C@@H](C)[C@H]2CNc2ncc(C#N)cn2)n1 [Example A190, 2-((((2S,3R)-3-Methyl-1-(6-methyl-3-(2H-1,2,3-triazol-2-yl)picolinoyl)piperidin-2-yl)methyl)amino)pyrimidine-5-carbonitrile]
15 | 79 | 6 | Cc1ccc(-n2nccn2)c(C(=O)N2CCC[C@@H](C)[C@H]2CN(C)c2ccc(C(F)(F)F)cn2)n1 [Example A194, ((2S,3R)-3-Methyl-2-((methyl(5-(trifluoromethyl)pyridin-2-yl)amino)methyl)piperidin-1-yl)(6-methyl-3-(2H-1,2,3-triazol-2-yl)pyridin-2-yl)methanone]
16 | 57 | 4 | Cc1ccc(-n2nccn2)c(C(=O)N2CCC[C@@H](C)[C@H]2CNc2nc3cc(Cl)ccc3o2)n1 [Example A195, ((2S,3R)-2-(((5-Chlorobenzo[d]oxazol-2-yl)amino)methyl)-3-methylpiperidin-1-yl)(6-methyl-3-(2H-1,2,3-triazol-2-yl)pyridin-2-yl)methanone]
17 | 83 | 7 | Cc1ccc(-c2cccnn2)c(C(=O)N2CCC[C@@H](C)[C@H]2CNc2ccc(C(F)(F)F)cn2)c1 [Example A197, ((2S,3R)-3-methyl-2-(((5-(trifluoromethyl)pyridin-2-yl)amino)methyl)piperidin-1-yl)(5-methyl-2-(pyridazin-3-yl)phenyl)methanone]
18 | 62 | 15 | Cc1ccc(-c2ccccn2)c(C(=O)N2CCC[C@@H](C)[C@H]2CNc2nc3cc(Cl)ccc3o2)n1 [Example A199, ((2S,3R)-2-(((5-Chlorobenzo[d]oxazol-2-yl)amino)methyl)-3-methylpiperidin-1-yl)(6′-methyl-[2,3′-bipyridin]-2′-yl)methanone]
19 | 73 | 54 | C[C@@H]1CCCN(C(=O)c2cc(Cl)ccc2-c2ncccn2)[C@@H]1CNc1ccc(C(F)(F)F)nn1 [Example A200, (5-Chloro-2-(pyrimidin-2-yl)phenyl)((2S,3R)-3-methyl-2-(((6-(trifluoromethyl)pyridazin-3-yl)amino)methyl)piperidin-1-yl)methanone]
